# Data as given in US20210009542A1 (Calico Life Sciences LLC, priority 2018, published 2021).
# pIC50: −log10 of the molar value. Where two headings read alike, the source gives them in different places.
# Key:
# [1] = molecular target: T1, His tagged PTPN2 (TC45) protein (Homo sapiens, UniProt P17706); test: Mobility shift assay (MSA) for potency of PTPN2 inhibitors; type: biochemical
# T1 construct: made in house
# T1 sequence (P17706 with tags, fused parts or gaps isoform P17706-2): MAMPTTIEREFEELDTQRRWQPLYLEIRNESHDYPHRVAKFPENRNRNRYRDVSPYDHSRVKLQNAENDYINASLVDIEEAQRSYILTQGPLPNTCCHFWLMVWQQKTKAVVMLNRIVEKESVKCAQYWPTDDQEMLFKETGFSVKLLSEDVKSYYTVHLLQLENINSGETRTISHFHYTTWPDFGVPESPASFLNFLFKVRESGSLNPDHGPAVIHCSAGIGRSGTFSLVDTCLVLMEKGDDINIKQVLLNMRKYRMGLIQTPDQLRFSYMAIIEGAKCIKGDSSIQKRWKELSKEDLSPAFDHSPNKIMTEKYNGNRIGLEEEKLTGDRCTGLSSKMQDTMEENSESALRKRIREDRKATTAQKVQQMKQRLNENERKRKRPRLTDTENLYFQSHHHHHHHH
# Method in brief: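 His-tagged PTPN2 TC45 (0.5 nM) was preincubated with compound (12-point, 1:3) for 10 min at room temperature in 50 mM HEPES pH 7.5, 1 mM EGTA, 10 mM EDTA, 0.01% Tween 20, 2 mM DTT. OG488-labelled phospho-insulin-receptor peptide ([…]) was then added for 10 min. After quenching, dephosphorylation was measured by microfluidic mobility shift and IC50 derived from % inhibition.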
# [2] = tested on: B16F10 mouse melanoma cells; test: B16F10 IFNγ-induced cellular growth inhibition assay; type: cell-based; details: Mus musculus, B16-F10
# Experimental: B16F10 mouse melanoma cells (ATCC Cat ^#CRL-6475, Manassas, Va.) were seeded at a density of 500 cells per well in a 384-well clear bottom plate (Corning Cat^# 3765, Corning, N.Y.) in 25 μL total volume of DMEM+10% FBS (Sigma Cat ^#D6429 and Sigma Cat ^#F4135, St. Louis, Mo.). Cells were allowed to adhere overnight at 37° C.+5% CO2. On the following day, 12.5 μL of mouse IFNγ (RD systems Cat485-MI/CF, Minneapolis, Minn.) was added to half of the plate (columns 13-24) at a concentration of 2 ng/mL for a final assay concentration of 0.5 ng/mL of IFNγ. Media only (12.5 μL of DMEM+10% FBS) was added to the remainder of the plate (columns 1-12). Next, compounds resuspended in DMSO (Sigma Cat ^#D2650) at 100 mM were diluted in semi-log dilutions in DMSO ranging from 100 mM to 0.001 mM and DMSO only controls were included. The compound/DMSO dilutions were further diluted 1:250 in DMEM+10% FBS, and 12.5 μL of these dilutions were added in triplicates to cells of both treatment arms (with and without IFNγ). Final compound concentrations ranged from 100 μM to 0.001 μM with a final DMSO concentration of 0.1%. Compounds were only dosed in the inner 240 wells, avoiding the outer 2-well perimeter of the plate to minimize edge effects. Finally, the plate was loaded into an IncuCyte® S3 Live Cell Analysis System (Essen Bioscience-Sartorius, Ann Arbor, Mich.) maintained in a 37° C.+5% CO2 incubator, allowed to equilibrate for 2 hours, and imaged every 6 hours for 5 days. Confluence over time for compound dilutions in the presence and absence of IFNγ was measured. Growth inhibition values were obtained when the “DMSO/no IFNγ” control reached confluence >95%. At these time points, the percent growth inhibition of each compound at the indicated concentration was calculated relative to the “DMSO/with IFNγ” control.
# [3] = +0.5 ng/mL IFNγ, 33 μM compound, relative to DMSO control, read-out: % B16F10 growth inhibition (+0.5 ng/mL IFNγ) @ 33 μM
# [4] = no IFNγ, 33 μM compound, read-out: % B16F10 growth inhibition (no IFNγ) @ 33 μM
smiles,measurement,setting,value
"O=C1CN(c2c(O)cc3ccc(OCCC4CC4)cc3c2F)S(=O)(=O)N1 [Compound 211, 5-[7-(2-cyclopropylethoxy)-1-fluoro-3-hydroxynaphthalen-2-yl]-1λ^6,2,5-thiadiazolidine-1,1,3-trione]",pIC50,[1]; read-out: PTPN2 MSA IC50,> 9.00
same,inhibition at 33 µM,[2]; [3],60 to 90%
same,inhibition at 33 µM,[2]; [4],< 25%
"COc1ccc2c(Br)c(O)c(N3CC(=O)NS3(=O)=O)c(F)c2c1 [Compound 243, 5-(4-bromo-1-fluoro-3-hydroxy-7-methoxynaphthalen-2-yl)-1λ^6,2,5-thiadiazolidine-1,1,3-trione]",pIC50,[1]; read-out: PTPN2 MSA IC50,7.00 to 8.00
same,inhibition at 33 µM,[2]; [3],25 to 59%
same,inhibition at 33 µM,[2]; [4],< 25%
"O=C1CN(c2c(O)cc3ccc(OCCNS(=O)(=O)C4CC4)cc3c2F)S(=O)(=O)N1 [Compound 127, N-(2-{[8-fluoro-6-hydroxy-7-(1,1,4-trioxo-1λ^6,2,5-thiadiazolidin-2-yl)naphthalen-2-yl]oxy}ethyl)cyclopropanesulfonamide]",pIC50,[1]; read-out: PTPN2 MSA IC50,> 9.00
same,inhibition at 33 µM,[2]; [3],60 to 90%
same,inhibition at 33 µM,[2]; [4],< 25%
"[2H]C([2H])([2H])Oc1ccc2cc(O)c(N3CC(=O)NS3(=O)=O)c(F)c2c1 [Compound 118, 5-{1-fluoro-3-hydroxy-7-[(^2H3)methyloxy]naphthalen-2-yl}-1λ^6,2,5-thiadiazolidine-1,1,3-trione]",pIC50,[1]; read-out: PTPN2 MSA IC50,8.00 to 9.00
same,inhibition at 33 µM,[2]; [3],60 to 90%
same,inhibition at 33 µM,[2]; [4],< 25%
"O=C1CN(c2c(O)cc3ccc(NCCNS(=O)(=O)C4CC4)cc3c2F)S(=O)(=O)N1 [Compound 125, N-(2-{[8-fluoro-6-hydroxy-7-(1,1,4-trioxo-1λ^6,2,5-thiadiazolidin-2-yl)naphthalen-2-yl]amino}ethyl)cyclopropanesulfonamide]",pIC50,[1]; read-out: PTPN2 MSA IC50,8.00 to 9.00
same,inhibition at 33 µM,[2]; [3],60 to 90%
same,inhibition at 33 µM,[2]; [4],< 25%
"Cc1nn(C)cc1S(=O)(=O)N1CC=C(c2ccc3cc(O)c(N4CC(=O)NS4(=O)=O)c(F)c3c2)C1 [Compound 310, 5-{7-[1-(1,3-dimethyl-1H-pyrazole-4-sulfonyl)-2,5-dihydro-1H-pyrrol-3-yl]-1-fluoro-3-hydroxynaphthalen-2-yl}-1λ^6,2,5-thiadiazolidine-1,1,3-trione]",pIC50,[1]; read-out: PTPN2 MSA IC50,> 9.00
same,inhibition at 33 µM,[2]; [3],> 90%
same,inhibition at 33 µM,[2]; [4],< 25%
"O=C1CN(c2c(O)cc3ccc(OCCN4CCOCC4)cc3c2F)S(=O)(=O)N1 [Compound 100, 5-{1-fluoro-3-hydroxy-7-[2-(morpholin-4-yl)ethoxy]naphthalen-2-yl}-1λ^6,2,5-thiadiazolidine-1,1,3-trione]",pIC50,[1]; read-out: PTPN2 MSA IC50,8.00 to 9.00
same,inhibition at 33 µM,[2]; [3],> 90%
same,inhibition at 33 µM,[2]; [4],< 25%
"CC(C)S(=O)(=O)N1CC=C(c2ccc3cc(O)c(N4CC(=O)NS4(=O)=O)c(F)c3c2)C1 [Compound 296, 5-{1-fluoro-3-hydroxy-7-[1-(propane-2-sulfonyl)-2,5-dihydro-1H-pyrrol-3-yl]naphthalen-2-yl}-1λ^6,2,5-thiadiazolidine-1,1,3-trione]",pIC50,[1]; read-out: PTPN2 MSA IC50,> 9.00
same,inhibition at 33 µM,[2]; [3],> 90%
same,inhibition at 33 µM,[2]; [4],< 25%
"COc1ccc2cc(O)c(N3CC(=O)NS3(=O)=O)c(F)c2c1F [Compound 205, 5-(1,8-difluoro-3-hydroxy-7-methoxynaphthalen-2-yl)-1λ^6,2,5-thiadiazolidine-1,1,3-trione]",pIC50,[1]; read-out: PTPN2 MSA IC50,7.00 to 8.00
same,inhibition at 33 µM,[2]; [3],25 to 59%
same,inhibition at 33 µM,[2]; [4],< 25%
"O=C1CN(c2c(O)cc3ccc(OCCOCC4CC4)cc3c2F)S(=O)(=O)N1 [Compound 212, 5-{7-[2-(cyclopropylmethoxy)ethoxy]-1-fluoro-3-hydroxynaphthalen-2-yl}-1λ^6,2,5-thiadiazolidine-1,1,3-trione]",pIC50,[1]; read-out: PTPN2 MSA IC50,8.00 to 9.00
same,inhibition at 33 µM,[2]; [3],60 to 90%
same,inhibition at 33 µM,[2]; [4],< 25%
"COc1ccc2cc(O)c(N3CC(=O)NS3(=O)=O)cc2c1 [Compound X, reference compound]",pIC50,"[1]; Table 4, read-out: PTPN2 MSA IC50",7.00 to 8.00
same,pIC50,[1]; read-out: PTPN2 IC50,7.16
same,inhibition at 33 µM,"[2]; 33 μM, in the presence of IFNγ, read-out: growth inhibition in the presence of IFNγ compared to DMSO controls",< 25%
same,inhibition at 33 µM,"[2]; Table 4, +0.5 ng/mL IFNγ, 33 μM, read-out: % B16F10 growth inhibition (+0.5 ng/mL IFNγ) @ 33 μM",< 25%
same,inhibition at 33 µM,"[2]; Table 4, no IFNγ, 33 μM, read-out: % B16F10 growth inhibition (no IFNγ) @ 33 μM",< 25%
"O=C1CN(c2c(O)cc3ccc(NCCCC(F)(F)F)cc3c2F)S(=O)(=O)N1 [Compound 166, 5-{1-fluoro-3-hydroxy-7-[(4,4,4-trifluorobutyl)amino]naphthalen-2-yl}-1λ^6,2,5-thiadiazolidine-1,1,3-trione]",pIC50,[1]; read-out: PTPN2 MSA IC50,8.00 to 9.00
same,inhibition at 33 µM,[2]; [3],> 90%
same,inhibition at 33 µM,[2]; [4],< 25%
"CCOCCOc1ccc2cc(O)c(N3CC(=O)NS3(=O)=O)c(F)c2c1 [Compound 246, 5-[7-(2-ethoxyethoxy)-1-fluoro-3-hydroxynaphthalen-2-yl]-1λ^6,2,5-thiadiazolidine-1,1,3-trione]",pIC50,[1]; read-out: PTPN2 MSA IC50,8.00 to 9.00
same,inhibition at 33 µM,[2]; [3],60 to 90%
same,inhibition at 33 µM,[2]; [4],< 25%
"O=C1CN(c2c(O)cc3ccc(OCC(=O)N4CCCC4)cc3c2F)S(=O)(=O)N1 [Compound 283, 5-{1-fluoro-3-hydroxy-7-[2-oxo-2-(pyrrolidin-1-yl)ethoxy]naphthalen-2-yl}-1λ^6,2,5-thiadiazolidine-1,1,3-trione]",pIC50,[1]; read-out: PTPN2 MSA IC50,8.00 to 9.00
same,inhibition at 33 µM,[2]; [3],25 to 59%
same,inhibition at 33 µM,[2]; [4],< 25%
"O=C1CN(c2c(O)cc3ccc(C4=CCN(CC5CC5)C4)cc3c2F)S(=O)(=O)N1 [Compound 242, 5-{7-[1-(cyclopropylmethyl)-2,5-dihydro-1H-pyrrol-3-yl]-1-fluoro-3-hydroxynaphthalen-2-yl}-1λ^6,2,5-thiadiazolidine-1,1,3-trione]",pIC50,[1]; read-out: PTPN2 MSA IC50,8.00 to 9.00
same,inhibition at 33 µM,[2]; [3],60 to 90%
same,inhibition at 33 µM,[2]; [4],< 25%
"[2H]C1([2H])C(=O)NS(=O)(=O)N1c1c(O)cc2ccc(OC)cc2c1F [Compound 123, 5-(1-fluoro-3-hydroxy-7-methoxynaphthalen-2-yl)(4,4-^2H2)-1λ^6,2,5-thiadiazolidine-1,1,3-trione]",pIC50,[1]; read-out: PTPN2 MSA IC50,8.00 to 9.00
same,inhibition at 33 µM,[2]; [3],60 to 90%
same,inhibition at 33 µM,[2]; [4],< 25%
"CC(C)(CN)CCOc1ccc2cc(O)c(N3CC(=O)NS3(=O)=O)c(F)c2c1 [Compound 176, 5-[7-(4-amino-3,3-dimethylbutoxy)-1-fluoro-3-hydroxynaphthalen-2-yl]-1λ^6,2,5-thiadiazolidine-1,1,3-trione]",pIC50,[1]; read-out: PTPN2 MSA IC50,8.00 to 9.00
same,inhibition at 33 µM,[2]; [3],> 90%
same,inhibition at 33 µM,[2]; [4],< 25%
"CCN(CC)C(=O)COc1ccc2cc(O)c(N3CC(=O)NS3(=O)=O)c(F)c2c1 [Compound 282, N,N-diethyl-2-{[8-fluoro-6-hydroxy-7-(1,1,4-trioxo-1λ^6,2,5-thiadiazolidin-2-yl)naphthalen-2-yl]oxy}acetamide]",pIC50,[1]; read-out: PTPN2 MSA IC50,8.00 to 9.00
same,inhibition at 33 µM,[2]; [3],25 to 59%
same,inhibition at 33 µM,[2]; [4],< 25%
"CC(C)CCNc1ccc2cc(O)c(N3CC(=O)NS3(=O)=O)c(F)c2c1 [Compound 200, 5-{1-fluoro-3-hydroxy-7-[(3-methylbutyl)amino]naphthalen-2-yl}-1λ^6,2,5-thiadiazolidine-1,1,3-trione]",pIC50,[1]; read-out: PTPN2 MSA IC50,8.00 to 9.00
same,inhibition at 33 µM,[2]; [3],> 90%
same,inhibition at 33 µM,[2]; [4],< 25%
"O=C1CN(c2c(O)cc3ccc(C4CCNCC4)cc3c2F)S(=O)(=O)N1 [Compound 299, 5-[1-fluoro-3-hydroxy-7-(piperidin-4-yl)naphthalen-2-yl]-1λ^6,2,5-thiadiazolidine-1,1,3-trione]",pIC50,[1]; read-out: PTPN2 MSA IC50,8.00 to 9.00
same,inhibition at 33 µM,[2]; [3],> 90%
same,inhibition at 33 µM,[2]; [4],< 25%
